# Experiments:
# Format in all cases: in vivo
# [1] = test system: redroot pigweed (Amaranthus retroflexus); assay: Test G Post-Emergence Protocol; conditions: Amaranthus retroflexus, post-emergence, 312 h; for pest or weed control at 15.625 g/ha: 15.625 g ai/ha, evaluated after 13 days (100=total damage to plant; 0=no damage to plant), read-out: Pigweed, Redroot damage rating; for pest or weed control at 62.5 g/ha: 62.5 g ai/ha, read-out: Pigweed, Redroot damage rating (100=total damage to plant; 0=no damage to plant); for pest or weed control at 62.5 g/ha / pest or weed control at 250 g/ha: evaluated after 13 days; for pest or weed control at 250 g/ha: 250 g ai/ha, read-out: damage to plant, Pigweed, Redroot (100=total damage to plant; 0=no damage to plant)
# Method in brief: (§1)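 Foliar application was made 8 days after sowing, using an aqueous spray of the active in acetone/water (50:50) with 0.5% Tween 20, at doses of 15.625, 62.5 or 250 g/ha. Injury was assessed 13 days later, where 100 meant the plant was fully damaged.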
# [2] = test system: velvetleaf (Abutilon theophrasti); assay: Test G Post-Emergence Protocol; conditions: Abutilon theophrasti, post-emergence, 312 h; for pest or weed control at 15.625 g/ha: 15.625 g ai/ha, evaluated after 13 days (100=total damage to plant; 0=no damage to plant), read-out: Velvetleaf damage rating; for pest or weed control at 62.5 g/ha: 62.5 g ai/ha, read-out: Velvetleaf damage rating (100=total damage to plant; 0=no damage to plant); for pest or weed control at 62.5 g/ha / pest or weed control at 250 g/ha: evaluated after 13 days; for pest or weed control at 250 g/ha: 250 g ai/ha, read-out: damage to plant, Velvetleaf (100=total damage to plant; 0=no damage to plant)
# Method in brief: as §1
# [3] = test system: giant foxtail (Setaria faberi); assay: Test G Post-Emergence Protocol; conditions: Setaria faberi, post-emergence, 312 h; for pest or weed control at 15.625 g/ha: 15.625 g ai/ha, evaluated after 13 days (100=total damage to plant; 0=no damage to plant), read-out: Foxtail, Giant damage rating; for pest or weed control at 62.5 g/ha: 62.5 g ai/ha, read-out: Foxtail, Giant damage rating (100=total damage to plant; 0=no damage to plant); for pest or weed control at 62.5 g/ha / pest or weed control at 250 g/ha: evaluated after 13 days; for pest or weed control at 250 g/ha: 250 g ai/ha, read-out: damage to plant, Foxtail, Giant (100=total damage to plant; 0=no damage to plant)
# Method in brief: as §1
# [4] = test system: ivy-leaved morning glory (Ipomoea hederacea); assay: Test G Post-Emergence Protocol; conditions: Ipomoea, post-emergence, 312 h; for pest or weed control at 15.625 g/ha: 15.625 g ai/ha, evaluated after 13 days (100=total damage to plant; 0=no damage to plant), read-out: Morningglory, Ivy-leaved damage rating; for pest or weed control at 62.5 g/ha: 62.5 g ai/ha, read-out: Morningglory, Ivy-leaved damage rating (100=total damage to plant; 0=no damage to plant); for pest or weed control at 62.5 g/ha / pest or weed control at 250 g/ha: evaluated after 13 days; for pest or weed control at 250 g/ha: 250 g ai/ha, read-out: damage to plant, Morningglory, Ivy-leaved (100=total damage to plant; 0=no damage to plant)
# Method in brief: as §1
# [5] = test system: corn (Zea mays); assay: Test G Post-Emergence Protocol; conditions: Zea mays, post-emergence, 312 h; for plant injury at 15.625 g/ha: 15.625 g ai/ha, evaluated after 13 days (100=total damage to plant; 0=no damage to plant), read-out: Corn damage rating; for plant injury at 62.5 g/ha: 62.5 g ai/ha, read-out: Corn damage rating (100=total damage to plant; 0=no damage to plant); for plant injury at 62.5 g/ha / plant injury at 250 g/ha: evaluated after 13 days; for plant injury at 250 g/ha: 250 g ai/ha, read-out: damage to plant, Corn (100=total damage to plant; 0=no damage to plant)
# Method in brief: as §1
# [6] = test system: barnyardgrass (Echinochloa crus-galli); assay: Test G Post-Emergence Protocol; conditions: Echinochloa crus-galli, post-emergence, 312 h; for pest or weed control at 15.625 g/ha: 15.625 g ai/ha, evaluated after 13 days (100=total damage to plant; 0=no damage to plant), read-out: Barnyardgrass damage rating; for pest or weed control at 62.5 g/ha: 62.5 g ai/ha, read-out: Barnyardgrass damage rating (100=total damage to plant; 0=no damage to plant); for pest or weed control at 62.5 g/ha / pest or weed control at 250 g/ha: evaluated after 13 days; for pest or weed control at 250 g/ha: 250 g ai/ha, read-out: damage to plant, Barnyardgrass (100=total damage to plant; 0=no damage to plant)
# Method in brief: as §1
# [7] = test system: redroot pigweed (Amaranthus retroflexus); assay: Test G Pre-Emergence Protocol; conditions: Amaranthus retroflexus, pre-emergence, 312 h, evaluated after 13 days; for pest or weed control at 62.5 g/ha: 62.5 g ai/ha, 100=total damage to plant, 0=no damage to plant, read-out: plant damage rating, Pigweed, Redroot; for pest or weed control at 250 g/ha: 250 g ai/ha
# Method in brief: (§2)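 One day after sowing, pots are treated with a spray of test compound formulated in acetone/water 50:50 plus 0.5% Tween 20, giving 15.625, 62.5 or 250 g/ha. Evaluation on a 0–100 damage scale follows 13 days of glasshouse growth.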
# [8] = test system: velvetleaf (Abutilon theophrasti); assay: Test G Pre-Emergence Protocol; conditions: Abutilon theophrasti, pre-emergence, 312 h, evaluated after 13 days; for pest or weed control at 62.5 g/ha: 62.5 g ai/ha, 100=total damage to plant, 0=no damage to plant, read-out: plant damage rating, Velvetleaf; for pest or weed control at 250 g/ha: 250 g ai/ha
# Method in brief: as §2
# [9] = test system: giant foxtail (Setaria faberi); assay: Test G Pre-Emergence Protocol; conditions: Setaria faberi, pre-emergence, 312 h, evaluated after 13 days; for pest or weed control at 15.625 g/ha: 15.625 g ai/ha; for pest or weed control at 15.625 g/ha / pest or weed control at 250 g/ha: read-out: Foxtail, Giant damage rating (100=total damage to plant; 0=no damage to plant); for pest or weed control at 62.5 g/ha: 62.5 g ai/ha, 100=total damage to plant, 0=no damage to plant, read-out: plant damage rating, Foxtail, Giant; for pest or weed control at 250 g/ha: 250 g ai/ha
# Method in brief: as §2
# [10] = test system: ivy-leaved morning glory (Ipomoea hederacea); assay: Test G Pre-Emergence Protocol; conditions: Ipomoea, pre-emergence, 312 h, evaluated after 13 days; for pest or weed control at 15.625 g/ha: 15.625 g ai/ha, read-out: Morning-glory, Ivy-leaved damage rating (100=total damage to plant; 0=no damage to plant); for pest or weed control at 62.5 g/ha: 62.5 g ai/ha, 100=total damage to plant, 0=no damage to plant, read-out: plant damage rating, Morningglory, Ivy-leaved; for pest or weed control at 250 g/ha: 250 g ai/ha, read-out: Morningglory, Ivy-leaved damage rating (100=total damage to plant; 0=no damage to plant)
# Method in brief: as §2
# [11] = test system: corn (Zea mays); assay: Test G Pre-Emergence Protocol; conditions: Zea mays, pre-emergence, 312 h, evaluated after 13 days; for plant injury at 15.625 g/ha: 15.625 g ai/ha; for plant injury at 15.625 g/ha / plant injury at 250 g/ha: read-out: Corn damage rating (100=total damage to plant; 0=no damage to plant); for plant injury at 62.5 g/ha: 62.5 g ai/ha, 100=total damage to plant, 0=no damage to plant, read-out: plant damage rating, Corn; for plant injury at 250 g/ha: 250 g ai/ha
# Method in brief: as §2
# [12] = test system: barnyardgrass (Echinochloa crus-galli); assay: Test G Pre-Emergence Protocol; conditions: Echinochloa crus-galli, pre-emergence, 312 h, evaluated after 13 days; for pest or weed control at 15.625 g/ha: 15.625 g ai/ha, read-out: Barnyard grass damage rating (100=total damage to plant; 0=no damage to plant); for pest or weed control at 62.5 g/ha: 62.5 g ai/ha, 100=total damage to plant, 0=no damage to plant, read-out: plant damage rating, Barnyardgrass; for pest or weed control at 250 g/ha: 250 g ai/ha, read-out: Barnyardgrass damage rating (100=total damage to plant; 0=no damage to plant)
# Method in brief: as §2
# [13] = read-out: Pigweed, Redroot damage rating (100=total damage to plant; 0=no damage to plant)
# [14] = read-out: Velvetleaf damage rating (100=total damage to plant; 0=no damage to plant)
Structure (SMILES),pest or weed control at 15.625 g/ha [1],pest or weed control at 62.5 g/ha [1],pest or weed control at 250 g/ha [1],pest or weed control at 15.625 g/ha [2],pest or weed control at 62.5 g/ha [2],pest or weed control at 250 g/ha [2],pest or weed control at 15.625 g/ha [3],pest or weed control at 62.5 g/ha [3],pest or weed control at 250 g/ha [3],pest or weed control at 15.625 g/ha [4],pest or weed control at 62.5 g/ha [4],pest or weed control at 250 g/ha [4],plant injury at 15.625 g/ha [5],plant injury at 62.5 g/ha [5],plant injury at 250 g/ha [5],pest or weed control at 15.625 g/ha [6],pest or weed control at 62.5 g/ha [6],pest or weed control at 250 g/ha [6],pest or weed control at 62.5 g/ha [7],"pest or weed control at 250 g/ha [7, 13]",also measured
COc1ccc(OC)c([C@H]2CN(C)C(=O)[C@@H]2C(=O)Nc2ccccc2F)c1 (racemic) [Compound 1453],0%,0%,0%,0%,0%,0%,10%,50%,50%,0%,0%,10%,10%,10%,10%,0%,10%,10%,0%,0%,"pest or weed control at 15.625 g/ha ([7]; 15.625 g ai/ha, read-out: Pigweed, Redroot damage rating (100=total damage to plant; 0=no damage to plant)): 0%; pest or weed control at 62.5 g/ha [8]: 0%; pest or weed control at 250 g/ha [8, 14]: 20%; pest or weed control at 15.625 g/ha [9]: 40%; pest or weed control at 62.5 g/ha [9]: 60%; pest or weed control at 250 g/ha [9]: 90%; pest or weed control at 15.625 g/ha [10]: 0%; pest or weed control at 62.5 g/ha [10]: 0%; pest or weed control at 250 g/ha [10]: 0%; plant injury at 15.625 g/ha [11]: 0%; plant injury at 62.5 g/ha [11]: 0%; plant injury at 250 g/ha [11]: 0%; pest or weed control at 15.625 g/ha [12]: 20%; pest or weed control at 62.5 g/ha [12]: 40%; pest or weed control at 250 g/ha [12]: 90%"
COc1ccc([C@H]2CN(C)C(=O)[C@@H]2C(=O)Nc2ccccc2F)c(C)c1 (racemic) [Compound 1455],0%,0%,40%,0%,0%,10%,10%,10%,50%,0%,0%,20%,10%,10%,20%,0%,0%,20%,0%,0%,"pest or weed control at 15.625 g/ha ([8]; 15.625 g ai/ha, read-out: Velvetleaf damage rating (100=total damage to plant; 0=no damage to plant)): 0%; pest or weed control at 62.5 g/ha [8]: 30%; pest or weed control at 250 g/ha [8, 14]: 0%; pest or weed control at 15.625 g/ha [9]: 30%; pest or weed control at 62.5 g/ha [9]: 70%; pest or weed control at 250 g/ha [9]: 90%; pest or weed control at 15.625 g/ha [10]: 0%; pest or weed control at 62.5 g/ha [10]: 0%; pest or weed control at 250 g/ha [10]: 20%; plant injury at 15.625 g/ha [11]: 0%; plant injury at 62.5 g/ha [11]: 0%; plant injury at 250 g/ha [11]: 10%; pest or weed control at 15.625 g/ha [12]: 30%; pest or weed control at 62.5 g/ha [12]: 70%; pest or weed control at 250 g/ha [12]: 90%"

# — patent publication US12077503B2, “Substituted cyclic amides and their use as herbicides” (FMC CORPORATION, priority 2015, dated 2024)
